From patent publication US20090074761A1, “Therapeutic beta-glucan combinations” (priority 2007, published 2009) come the findings set out here.

In data set [1] the test system is SKOV-3 tumors. The data set can be described thus: SKOV-3 xenograft in ICR SCID mice, i.v. therapy for 4 weeks (FIG. 3). The note with it: 1.2 mg β-glucan twice weekly, 0.2 mg bevacizumab every third day, i.v. 4 weeks; start 300 mm^3. The format is in vivo, mouse. An excerpt: After SKOV-3 cell s.c. implantation, tumors were allowed to grow for over 17 days until they were 300 mm^3. […] Mice were sacrificed when the tumors reached 15 mm in diameter.

In another data set the test system is Colo38 tumors. The data set can be described thus: Colo38 xenograft model in ICR SCID mice (FIG. 4C). The format is in vivo, mouse. To be noted: Colo38 xenograft (membrane-bound VEGF negative). An excerpt: (§1) Additional evidence was gathered to show efficacy of in vivo therapy. ICR SCID mice implanted with SKOV-3 cells were compared to ICR SCID mice implanted with Colo38 cells as a control. […] Most of these tumors still retained their sizes before therapy. More importantly, 86% of these mice achieved long-term survival compared with 43% of tumor-bearing mice treated with anti-VEGF mAb only (FIG. 4B).

In data set [2] the test system is SKOV-3 tumors. The data set is described as follows: SKOV-3 xenograft model in ICR SCID mice (FIG. 4A, 4B). The format is in vivo, mouse.
Description: as §1

Data set [3] has as its system SKOV-3 tumors. The data set is described as follows: immunohistochemistry of tumor sections: iC3b deposition and neutrophil infiltration (FIG. 5). The format is in vivo, mouse. The note with it: for neutrophil infiltration in tumors: anti-Gr-1-PE staining of tumor sections; for iC3b deposition in tumors: anti-iC3b-FITC staining of tumor sections. An excerpt:
Interaction between the complement activation product iC3b and the I-domain of CR3 provides the first signal for CR3 priming. Engagement of β-glucan with the lectin-like domain of CR3 is additionally required for the full activation of CR3. The dual ligation of CR3 leads to neutrophil CR3-dependent cellular cytotoxicity (Li et al., J Immunol 177:1661-1669). Neutrophil trafficking within tumors is also critical for successful combined β-glucan with anti-tumor mAb therapy (Allendorf et al., J Immunol 174:7050-7056). Therefore, immunohistochemistry studies were carried out to examine complement activation and neutrophil infiltration within tumors after treatment with different regimens.
First, the tumor sections from four groups were stained with an anti-iC3b-FITC and anti-VEGF-PE mAbs. […] Second, the tumor sections were stained with anti-Gr-1-PE mAb to detect neutrophil infiltration.

For the next data set, the system named is SKOV-3 cells. The class given is cell-based, human. The procedure: As described above, β-glucan functions with anti-tumor antibodies to activate complement receptor 3 (CR3) and recruit neutrophils that mediate CR3 (iC3b-receptor)-dependent cytotoxicity of tumors coated with iC3b. […] SKOV-3 cells were incubated with anti-VEGF mAb or anti-Her-2/neu mAb in the presence of human complement. Cells were then washed and co-cultured with human neutrophils (E:T ratio=20:1) in the presence of soluble β-glucan. Cytotoxicity was calculated as in Li et al., J Immunol 177:1661-1669.

Data set [4] concerns SKOV-3 tumors. The data set is described as follows: tumor blood vessel development, anti-CD31 staining of tumor sections (FIG. 6). The note with it: anti-CD31-biotin staining, compared to PBS or β-glucan alone. The class given is in vivo, mouse. The text has this:
To observe tumor blood vessel development after anti-VEGF mAb therapy, the tumor sections were stained with anti-CD31-biotin mAb.

Data set [5] deals with MDA-MB-483, HBL-100, Colo38 cells. The data set can be described thus: complement activation (iC3b deposition), flow cytometry, cell lines negative for membrane-bound VEGF. The format is cell-based, human. To be noted: tumor cell lines negative for membrane-bound VEGF, mouse serum as complement source. How it is done: Next, the ability of anti-VEGF mAb to bind surface-bound VEGF and activate complement, which leads to iC3b deposition, was examined. SKOV-3 cells were mixed with anti-VEGF mAb in the presence of a 1:4 dilution of mouse serum (complement source). For every one million tumor cells, a 100 μL volume of diluted mouse serum containing 10 μg/mL working dilution of anti-VEGF mAb was used. Tumor cells were mixed and incubated at 37° C. for 30 min. The cells were washed in ice cold flow cytometry staining buffer and the cell pellet was resuspended in […] diluted detecting antibody. The cells were incubated on ice for 30 min. and washed twice. Propidium iodide was used to exclude dead cells. The results of cell lines MDA-MB-483, HBL-100, SKOV-3 and Colo38 are shown in histograms 26, 28, 30 and 32 of FIG. 1C, respectively. Cells incubated with anti-VEGF mAb in the presence of complement and stained with anti-mouse iC3b-FITC mAb are represented by bold lines. Controls included cells incubated with mouse complement (dotted line) or without mouse complement (filled gray) and then stained with anti-mouse iC3b-FITC mAb.

As to bevacizumab, the tumor size reached in the data set on SKOV-3 tumors [1] was determined as 800±250 mm^3. The tumor burden result in the data set with Colo38 tumors is “significantly reduced tumor burden”. In the data set on SKOV-3 tumors [2], the “mice achieving long-term survival” value is reported as 43% and the tumor burden result is “significantly reduced tumor burden”. Moreover, in the data set with SKOV-3 tumors [3], the “neutrophil infiltration in tumors” value is listed as “significant neutrophil infiltration” and the “iC3b deposition in tumors” value was “massive iC3b deposition”. In the data set on SKOV-3 cells, this substance came in with a cytotoxicity of 0.2%. In the data set with SKOV-3 tumors [4], the tumor microvessel density result is recorded as “decreased tumor microvessel density”. In addition, in data set [5], the “complement activation (iC3b deposition)” value is reported as “negative for complement activation”.
“poly-(1-6)-β-D-glucopyranosyl-(1-3)-β-D-glucopyranose [β-glucan]” gave a tumor size reached in the data set with SKOV-3 tumors [1] of 1500±500 mm^3. Further, the tumor burden entry in the data set on SKOV-3 tumors [2] is reported as “did not show any significant tumor regression”. In addition, in the data set on SKOV-3 tumors [3], the “neutrophil infiltration in tumors” value is “paucity of iC3b deposition and neutrophil infiltration”; the “iC3b deposition in tumors” value is “no iC3b deposition”.
